Patent US8846933B2, “N-link hydroxamic acid derivatives useful as antibacterial agents” (Pfizer Inc., priority 2009, dated 2014)

Assays:
[1] = tested on: Escherichia coli EC-1: VOGEL, mouse virulent; experiment: MIC determination (CLSI), strain EC-1; assay type: cell-based; details: strain EC-1, unit assumed
Method: (§1) The in vitro antibacterial activity of compounds described in the Examples was evaluated by minimum inhibitory concentration (MIC) testing according to Clinical and Laboratory Standards Institute (CLSI, formerly NCCLS) guidelines. See: Clinical and Laboratory Standards Institute. Methods for Dilution Antimicrobial Susceptibility Tests for Bacteria that Grow Aerobically; Approved Standard-Seventh Edition. CLSI document M7-A7 [ISBN 1-56238-587-9]. Clinical and Laboratory Standards Institute, 940 West Valley Road, Suite 1400, Wayne, Pa. 19087-1898 USA, 2006; also Clinical and Laboratory Standards Institute. Performance Standards for Antimicrobial Susceptibility Testing; Eighteenth Informational Supplement. CLSI document M100-S18 [ISBN1-56238-653-0].Clinical and Laboratory Standards Institute.
(§2) The following bacterial strains were used in these MIC determinations:
3) Escherichia coli EC-1: VOGEL, mouse virulent labeled as EC-1 in Tables 4 and 5;

[2] = tested on: Pseudomonas aeruginosa UI-18: Wild-type (PA-7); experiment: MIC determination (CLSI), strain PA-7; assay type: cell-based; details: strain PA-7, unit assumed
Method: as §1, §2
1) Pseudomonas aeruginosa UI-18: Wild-type, labeled as PA-7 in Tables 4, and 5;

[3] = generated in the same manner as in Table 4

CC(CCn1ccc(-c2ccc(OCCCn3cncn3)cc2Cl)cc1=O)(C(=O)NO)S(C)(=O)=O (centres unmarked) [Example 291, 4-[4-{2-chloro-4-[3-(1H-1,2,4-triazol-1-yl)propoxy]phenyl}-2-oxopyridin-1(2H)-yl]-N-hydroxy-2-methyl-2-(methylsulfonyl)butanamide]
EC-1 (MIC) [1]: 16 µg/mL | PA-7 (MIC) [2]: 16 µg/mL

C[C@@](CCn1ccc(-c2cnc(-c3ccccc3)o2)cc1=O)(C(=O)NO)S(C)(=O)=O [Example 474]
EC-1 (MIC) [1]: 64 µg/mL | PA-7 (MIC) [2]: 64 µg/mL

CCOc1ccc(Cl)cc1-c1ccn(CCC(C)(C(=O)NO)S(C)(=O)=O)c(=O)c1 (centres unmarked) [Example 105, 4-[4-(5-chloro-2-ethoxyphenyl)-2-oxopyridin-1(2H)-yl]-N-hydroxy-2-methyl-2-(methylsulfonyl)butanamide]
EC-1 (MIC) [1, 3]: > 64 µg/mL | PA-7 (MIC) [2, 3]: > 64 µg/mL

CC(CCn1ccc(-c2ccco2)cc1=O)(C(=O)NO)S(C)(=O)=O (centres unmarked) [Example 175, 4-[4-(2-furyl)-2-oxopyridin-1(2H)-yl]-N-hydroxy-2-methyl-2-(methylsulfonyl)butanamide]
EC-1 (MIC) [1, 3]: 64 µg/mL | PA-7 (MIC) [2, 3]: 16 µg/mL

CC(CCn1ccc(-c2ccc3[nH]cc(CCO)c3c2)cc1=O)(C(=O)NO)S(C)(=O)=O (centres unmarked) [Example 263, N-hydroxy-4-{4-[3-(2-hydroxyethyl)-1H-indol-5-yl]-2-oxopyridin-1(2H)-yl}-2-methyl-2-(methylsulfonyl)butanamide]
EC-1 (MIC) [1]: 8 µg/mL | PA-7 (MIC) [2]: > 64 µg/mL

CC(CCn1ccc(-c2ccc3cc(OCCCO)ccc3c2)cc1=O)(C(=O)NO)S(C)(=O)=O (centres unmarked) [Example 274, N-hydroxy-4-{4-[6-(3-hydroxypropoxy)-2-naphthyl]-2-oxopyridin-1(2H)-yl}-2-methyl-2-(methylsulfonyl)butanamide]
EC-1 (MIC) [1]: 0.25 µg/mL | PA-7 (MIC) [2]: 2 µg/mL

C[C@@](CCn1ccc(-c2ccc(OC(F)F)cc2)cc1=O)(C(=O)NO)S(C)(=O)=O [Example 338, (2R)-4-{4-[4-(difluoromethoxy)phenyl]-2-oxopyridin-1(2H)-yl}-N-hydroxy-2-methyl-2-(methylsulfonyl)butanamide]
EC-1 (MIC) [1]: 0.5 µg/mL | PA-7 (MIC) [2]: 0.5 µg/mL

Cc1cc(-c2ccn(CCC(C)(C(=O)NO)S(C)(=O)=O)c(=O)c2)ccc1OCCCn1cncn1 (centres unmarked) [Example 293, N-hydroxy-2-methyl-2-(methylsulfonyl)-4-[4-{3-methyl-4-[3-(1H-1,2,4-triazol-1-yl)propoxy]phenyl}-2-oxopyridin-1(2H)-yl]butanamide]
EC-1 (MIC) [1]: 4 µg/mL | PA-7 (MIC) [2]: 16 µg/mL

C[C@@](CCn1ccc(-c2ccc3cnc(N)cc3c2)cc1=O)(C(=O)NO)S(C)(=O)=O [Example 485]
EC-1 (MIC) [1]: 64 µg/mL | PA-7 (MIC) [2]: 32 µg/mL

CN(C)c1ncc(-c2ccc(-c3ccn(CC[C@](C)(C(=O)NO)S(C)(=O)=O)c(=O)c3)cc2)cn1 [Example 409, (2R)-4-[4-{4-[2-(dimethylamino)pyrimidin-5-yl]phenyl}-2-oxopyridin-1(2H)-yl]-N-hydroxy-2-methyl-2-(methylsulfonyl)butanamide]
EC-1 (MIC) [1]: 0.5 µg/mL | PA-7 (MIC) [2]: 2 µg/mL

C[C@@](CCn1ccc(-c2ccc3cc(N)ncc3c2)cc1=O)(C(=O)NO)S(C)(=O)=O [Example 473]
EC-1 (MIC) [1]: 16 µg/mL | PA-7 (MIC) [2]: 16 µg/mL

CC(CCn1ccc(-c2ccc(OCCCCO)cc2F)cc1=O)(C(=O)NO)S(C)(=O)=O (centres unmarked) [Example 241]
EC-1 (MIC) [1]: 2 µg/mL | PA-7 (MIC) [2]: 2 µg/mL

CC(CCn1ccc(-c2cccc(F)c2)cc1=O)(C(=O)NO)S(C)(=O)=O (centres unmarked) [Example 187, 4-[4-(3-fluorophenyl)-2-oxopyridin-1(2H)-yl]-N-hydroxy-2-methyl-2-(methylsulfonyl)butanamide]
EC-1 (MIC) [1]: 8 µg/mL | PA-7 (MIC) [2]: 2 µg/mL

CC(CCn1ccc(-c2ccc3cc[nH]c3c2)cc1=O)(C(=O)NO)S(C)(=O)=O (centres unmarked) [Example 176, N-hydroxy-4-[4-(1H-indol-6-yl)-2-oxopyridin-1(2H)-yl]-2-methyl-2-(methylsulfonyl)butanamide]
EC-1 (MIC) [1, 3]: 8 µg/mL | PA-7 (MIC) [2, 3]: 4 µg/mL

C[C@@](CCn1ccc(-c2ccc(OC(F)(F)F)cc2F)cc1=O)(C(=O)NO)S(C)(=O)=O [Example 354, (2R)-4-{4-[2-fluoro-4-(trifluoromethoxy)phenyl]-2-oxopyridin-1(2H)-yl}-N-hydroxy-2-methyl-2-(methylsulfonyl)butanamide]
EC-1 (MIC) [1]: 0.25 µg/mL | PA-7 (MIC) [2]: 0.5 µg/mL

C[C@@](CCn1ccc(-c2cc(F)ccc2Cl)cc1=O)(C(=O)NO)S(C)(=O)=O [Example 392, (2R)-4-[4-(2-chloro-5-fluorophenyl)-2-oxopyridin-1(2H)-yl]-N-hydroxy-2-methyl-2-(methylsulfonyl)butanamide]
EC-1 (MIC) [1]: 16 µg/mL | PA-7 (MIC) [2]: 8 µg/mL

Cc1cc(C(N)=O)ccc1-c1ccn(CCC(C)(C(=O)NO)S(C)(=O)=O)c(=O)c1 (centres unmarked) [Example 113, 4-{1-[4-(hydroxyamino)-3-methyl-3-(methylsulfonyl)-4-oxobutyl]-2-oxo-1,2-dihydropyridin-4-yl}-3-methylbenzamide]
EC-1 (MIC) [1, 3]: > 64 µg/mL | PA-7 (MIC) [2, 3]: > 64 µg/mL

C[C@@](CCn1ccc(-c2ccc(CCC#N)cc2)cc1=O)(C(=O)NO)S(C)(=O)=O [Example 347, (2R)-4-{4-[4-(2-cyanoethyl)phenyl]-2-oxopyridin-1(2H)-yl}-N-hydroxy-2-methyl-2-(methylsulfonyl)butanamide]
EC-1 (MIC) [1]: 64 µg/mL | PA-7 (MIC) [2]: 4 µg/mL

Cc1c(-c2ccc(F)cc2)ccn(CC[C@](C)(C(=O)NO)S(C)(=O)=O)c1=O [Example 395, (2R)-4-[4-(4-fluorophenyl)-3-methyl-2-oxopyridin-1(2H)-yl]-N-hydroxy-2-methyl-2-(methylsulfonyl)butanamide]
EC-1 (MIC) [1]: 1 µg/mL | PA-7 (MIC) [2]: 2 µg/mL

CC(CCn1ccc(-c2ccoc2)cc1=O)(C(=O)NO)S(C)(=O)=O (centres unmarked) [Example 118, 4-[4-(3-furyl)-2-oxopyridin-1(2H)-yl]-N-hydroxy-2-methyl-2-(methylsulfonyl)butanamide]
EC-1 (MIC) [1, 3]: > 64 µg/mL | PA-7 (MIC) [2, 3]: 64 µg/mL

CC(C)(O)Cc1ccc(-c2ccn(CCC(C)(C(=O)NO)S(C)(=O)=O)c(=O)c2)cc1 (centres unmarked) [Example 255, N-hydroxy-4-{4-[4-(2-hydroxy-2-methylpropyl)phenyl]-2-oxopyridin-1(2H)-yl}-2-methyl-2-(methylsulfonyl)butanamide]
EC-1 (MIC) [1]: 2 µg/mL | PA-7 (MIC) [2]: 8 µg/mL

CC(CCn1ccc(OCCCC2CCCC2)cc1=O)(C(=O)NO)S(C)(=O)=O (centres unmarked) [Example 488, 4-[4-(3-cyclopentylpropoxy)-2-oxopyridin-1(2H)-yl]-N-hydroxy-2-methyl-2-(methylsulfonyl)butanamide]
EC-1 (MIC) [1]: 8 µg/mL | PA-7 (MIC) [2]: 64 µg/mL

COc1cc(-c2ccn(CCC(C)(C(=O)NO)S(C)(=O)=O)c(=O)c2)ccc1F (centres unmarked) [Example 208, 4-[4-(4-fluoro-3-methoxyphenyl)-2-oxopyridin-1(2H)-yl]-N-hydroxy-2-methyl-2-(methylsulfonyl)butanamide]
EC-1 (MIC) [1]: 32 µg/mL | PA-7 (MIC) [2]: 16 µg/mL

C[C@@](CCn1ccc(-c2ccc(OCCCCO)cc2)cc1=O)(C(=O)NO)S(C)(=O)=O [Example 279, (2R)-N-hydroxy-4-{4-[4-(4-hydroxybutoxy)phenyl]-2-oxopyridin-1(2H)-yl}-2-methyl-2-(methylsulfonyl)butanamide]
EC-1 (MIC) [1]: 0.5 µg/mL | PA-7 (MIC) [2]: 1 µg/mL

Cc1ccc(-c2ccn(CC[C@](C)(C(=O)NO)S(C)(=O)=O)c(=O)c2)cc1C#N [Example 476]
EC-1 (MIC) [1]: 16 µg/mL | PA-7 (MIC) [2]: 8 µg/mL
